Test results reported in US9469650B2, “Melampomagnolide B derivatives” (BOARD OF TRUSTEES OF THE UNIVERSITY OF ARKANSAS, priority 2013, dated 2016).

What was measured:
SR = assay: panel of 60 human tumor cell lines, growth inhibition (Leukemia); conditions: Homo sapiens
HT29 = assay: panel of 60 human tumor cell lines, growth inhibition (Colon Cancer); conditions: for Percent Growth: HT29
SNB-19 = assay: panel of 60 human tumor cell lines, growth inhibition (CNS Cancer); conditions: Homo sapiens
PC-3 = assay: panel of 60 human tumor cell lines, growth inhibition (Prostate Cancer); conditions: Homo sapiens
SK-MEL-28 = assay: panel of 60 human tumor cell lines, growth inhibition (Melanoma); conditions: Homo sapiens
TK-10 = assay: panel of 60 human tumor cell lines, growth inhibition (Renal Cancer); conditions: Homo sapiens
NCI-H322M = assay: panel of 60 human tumor cell lines, growth inhibition (Non-Small Cell Lung Cancer); conditions: Homo sapiens
A498 = assay: panel of 60 human tumor cell lines, growth inhibition (Renal Cancer); conditions: Homo sapiens
A549/ATCC = assay: panel of 60 human tumor cell lines, growth inhibition (Non-Small Cell Lung Cancer); conditions: Homo sapiens
OVCAR-3 = assay: panel of 60 human tumor cell lines, growth inhibition (Ovarian Cancer)
UACC-62 = assay: panel of 60 human tumor cell lines, growth inhibition (Melanoma); conditions: Homo sapiens
UACC-257 = assay: as above
NCI-H23 = assay: panel of 60 human tumor cell lines, growth inhibition (Non-Small Cell Lung Cancer); conditions: Homo sapiens
U251 = assay: panel of 60 human tumor cell lines, growth inhibition (CNS Cancer); conditions: Homo sapiens
SNB-75 = assay: as above; conditions: Homo sapiens
MDA-MB-468 = assay: panel of 60 human tumor cell lines, growth inhibition (Breast Cancer); conditions: Homo sapiens
SF-295 = assay: panel of 60 human tumor cell lines, growth inhibition (CNS Cancer); conditions: Homo sapiens
M14 = assay: panel of 60 human tumor cell lines, growth inhibition (Melanoma); conditions: Homo sapiens

How did the GI50 (SR) turn out when `C=C1C(=O)O[C@H]2[C@H]1CC/C(COC(=O)NCCCCCCO)=C\CC[C@@]1(C)O[C@@H]21` [JVM 2-31] was run?
Its GI50 is 2.35 µM.

And the CC50 (SR; read-out: LC50)?
Its CC50 is greater than 100 µM.

And the IC (TGI) (SR; read-out: TGI)?
The IC (TGI) was 13.3 µM.

And the “Percent Growth” value (HT29; Log10 Concentration −4.0)?
Its value is −61%.

And the “Percent Growth” value (HT29; Log10 Concentration −5.0)?
The value was 93%.

What about the “Percent Growth” value (HT29; Log10 Concentration −6.0) of the same molecule?
The value was 102%.

And the “Percent Growth” value (HT29; Log10 Concentration −7.0)?
The value was 104%.

What about the “Percent Growth” value (HT29; Log10 Concentration −8.0) of the same molecule?
Its value is 101%.

What about the GI50 (HT29; Homo sapiens, HT-29) of the same molecule?
Its GI50 is 19 µM.

What about the CC50 (HT29; Homo sapiens, HT-29, read-out: LC50) of the same molecule?
The CC50 was 84.8 µM.

And the IC (TGI) (HT29; Homo sapiens, HT-29, read-out: TGI)?
The IC (TGI) was 40.1 µM.

And the GI50 (SNB-19; SNB-19)?
Its GI50 is 16.7 µM.

What about the CC50 (SNB-19; SNB-19, read-out: LC50) of the same molecule?
Its CC50 is greater than 100 µM.

And the IC (TGI) (SNB-19; SNB-19, read-out: TGI)?
Its IC (TGI) is 51.3 µM.

What about the GI50 (PC-3; PC-3) of the same molecule?
The GI50 was 13.3 µM.

What about the CC50 (PC-3; PC-3, read-out: LC50) of the same molecule?
The CC50 was 64.1 µM.

And the IC (TGI) (PC-3; PC-3, read-out: TGI)?
The IC (TGI) was 29.2 µM.

And the GI50 (SK-MEL-28; SK-MEL-28)?
The GI50 was 5.21 µM.

What about the CC50 (SK-MEL-28; SK-MEL-28, read-out: LC50) of the same molecule?
Its CC50 is 43.7 µM.

And the IC (TGI) (SK-MEL-28; SK-MEL-28, read-out: TGI)?
The IC (TGI) was 18.1 µM.

And the GI50 (TK-10; TK-10, TK-10, NCI five dose)?
The GI50 was 2.64 µM.

What about the CC50 (TK-10; TK-10, read-out: LC50) of the same molecule?
Its CC50 is 33.3 µM.

And the IC (TGI) (TK-10; TK-10, read-out: TGI)?
Its IC (TGI) is 9.68 µM.

And the GI50 (NCI-H322M)?
The GI50 was 32.2 µM.

What about the CC50 (NCI-H322M; read-out: LC50) of the same molecule?
The CC50 was greater than 100 µM.

What about the IC (TGI) (NCI-H322M; read-out: TGI) of the same molecule?
Its IC (TGI) is 89 µM.

And the GI50 (A498; A498)?
Its GI50 is 12.5 µM.

And the CC50 (A498; A498, read-out: LC50)?
Its CC50 is 53.4 µM.

What about the IC (TGI) (A498; A498, read-out: TGI) of the same molecule?
Its IC (TGI) is 25.9 µM.

And the GI50 (A549/ATCC; A549)?
The GI50 was 17 µM.

And the CC50 (A549/ATCC; A549, read-out: LC50)?
Its CC50 is 85.2 µM.

And the IC (TGI) (A549/ATCC; A549, read-out: TGI)?
Its IC (TGI) is 38 µM.

And the GI50 (OVCAR-3; Homo sapiens, OVCAR-3)?
Its GI50 is 3.4 µM.

And the CC50 (OVCAR-3; Homo sapiens, OVCAR-3, read-out: LC50)?
The CC50 was 36 µM.

What about the IC (TGI) (OVCAR-3; Homo sapiens, OVCAR-3, read-out: TGI) of the same molecule?
The IC (TGI) was 12.1 µM.

What about the “Percent Growth” value (OVCAR-3; OVCAR-3, Log10 Concentration −4.0) of the same molecule?
The value was −97%.

And the “Percent Growth” value (OVCAR-3; OVCAR-3, Log10 Concentration −5.0)?
The value was 9%.

And the “Percent Growth” value (OVCAR-3; OVCAR-3, Log10 Concentration −6.0)?
The value was 97%.

What about the “Percent Growth” value (OVCAR-3; OVCAR-3, Log10 Concentration −7.0) of the same molecule?
The value was 111%.

And the “Percent Growth” value (OVCAR-3; OVCAR-3, Log10 Concentration −8.0)?
Its value is 105%.

What about the GI50 (UACC-62; UACC-62) of the same molecule?
Its GI50 is 6.78 µM.

And the CC50 (UACC-62; UACC-62, read-out: LC50)?
The CC50 was 53.4 µM.

And the IC (TGI) (UACC-62; UACC-62, read-out: TGI)?
Its IC (TGI) is 21.4 µM.

What about the GI50 (UACC-257; Homo sapiens, UACC-257) of the same molecule?
The GI50 was 8.79 µM.

And the CC50 (UACC-257; Homo sapiens, UACC-257, read-out: LC50)?
Its CC50 is 64.3 µM.

And the “Percent Growth” value (UACC-257; UACC-257, Log10 Concentration −4.0)?
The value was −73%.

And the “Percent Growth” value (UACC-257; UACC-257, Log10 Concentration −5.0)?
Its value is 47%.

And the “Percent Growth” value (UACC-257; UACC-257, Log10 Concentration −6.0)?
The value was 95%.

And the “Percent Growth” value (UACC-257; UACC-257, Log10 Concentration −7.0)?
Its value is 104%.

What about the “Percent Growth” value (UACC-257; UACC-257, Log10 Concentration −8.0) of the same molecule?
The value was 102%.

And the TGI (UACC-257; UACC-257, NCI five dose)?
The TGI was 2.47E−5.

And the GI50 (NCI-H23; NCI-H23)?
Its GI50 is 13.5 µM.

And the CC50 (NCI-H23; NCI-H23, read-out: LC50)?
Its CC50 is 72 µM.

And the IC (TGI) (NCI-H23; NCI-H23, read-out: TGI)?
The IC (TGI) was 31.1 µM.

And the GI50 (U251; U-251)?
The GI50 was 17.4 µM.

What about the CC50 (U251; U-251, read-out: LC50) of the same molecule?
The CC50 was 63.7 µM.

What about the IC (TGI) (U251; U-251, read-out: TGI) of the same molecule?
Its IC (TGI) is 33.3 µM.

What about the GI50 (SNB-75; SNB-75) of the same molecule?
Its GI50 is 5.84 µM.

And the CC50 (SNB-75; SNB-75, read-out: LC50)?
Its CC50 is 45.6 µM.

And the IC (TGI) (SNB-75; SNB-75, read-out: TGI)?
The IC (TGI) was 20.1 µM.

What about the GI50 (MDA-MB-468; MDA-MB-468) of the same molecule?
The GI50 was 1.01 µM.

What about the CC50 (MDA-MB-468; MDA-MB-468, read-out: LC50) of the same molecule?
The CC50 was 35.7 µM.

And the IC (TGI) (MDA-MB-468; MDA-MB-468, read-out: TGI)?
The IC (TGI) was 5.23 µM.

What about the GI50 (SF-295; SF-295) of the same molecule?
Its GI50 is 14.8 µM.

And the CC50 (SF-295; SF-295, read-out: LC50)?
Its CC50 is 85.8 µM.

And the IC (TGI) (SF-295; SF-295, read-out: TGI)?
The IC (TGI) was 35.7 µM.

What about the GI50 (M14; M14) of the same molecule?
Its GI50 is 4.5 µM.

And the CC50 (M14; M14, read-out: LC50)?
Its CC50 is 46.7 µM.

What about the IC (TGI) (M14; M14, read-out: TGI) of the same molecule?
Its IC (TGI) is 17.4 µM.
